Read-outs that look alike come from different tables or passages of the source.
Test system: HT-1080 (ATCC, CCL-121) cells
Assay: HT-1080 cell viability assay with ferroptosis inducer RSL3 (Cell Titer-Glo)
Format: cell-based
Details: HT-1080 cells treated with RSL3, 3-fold, 10-point dilution, 1.1 μM highest concentration, Table 3, read-out: EC50 (nM), ferroptosis inhibitory activity
Procedure, shortened: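 HT-1080 cells (6000 per well) were cultured overnight at 37 °C, then co-treated with RSL3 and compound in a 3-fold, 10-point series topping at 1.1 μM. Viability was read by CellTiter-Glo luminescence and normalized to untreated controls. EC50 came from a sigmoidal non-linear regression fit.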

| EC50 (Homo sapiens) [nM] | EC50 [nM] | SMILES |
| --- | --- | --- |
| 0.1 to 100 | – | Cc1cc(N2CCCC2)ccc1Nc1ccc2c(c1)OCC(=O)N2 [Compound 563, 7-((2-methyl-4-(pyrrolidin-1-yl)phenyl)amino)-2H-benzo[b][1,4]oxazin-3(4H)-one] |
| 0.1 to 100 | – | COc1cc(Nc2ccc(N3CCC(C(F)(F)F)CC3)cc2C)cc2c1NC(=O)CO2 [Compound 564, 5-methoxy-7-((2-methyl-4-(4-(trifluoromethyl)piperidin-1-yl)phenyl)amino)-2H-benzo[b][1,4]oxazin-3(4H)-one] |
| 0.1 to 100 | – | COc1cc(Nc2ccc(N3CCC(C(F)(F)F)CC3)cc2C)cc2c1N(C)C(=O)CO2 [Compound 565, 5-methoxy-4-methyl-7-((2-methyl-4-(4-(trifluoromethyl)piperidin-1-yl)phenyl)amino)-2H-benzo[b][1,4]oxazin-3(4H)-one] |
| 0.1 to 100 | – | Cc1cc(N2CCC(C(F)(F)F)CC2)ccc1Nc1ccc2c(c1)CN(C)C(=O)N2 [Compound 566, 3-methyl-6-({2-methyl-4-[4-(trifluoromethyl)piperidin-1-yl]phenyl}amino)-1,4-dihydroquinazolin-2-one] |
| 0.1 to 100 | – | Cc1cc(N2CCC(C(F)(F)F)CC2)ccc1Nc1ccc2[nH]cnc2c1 [Compound 567] |
| 0.1 to 100 | – | Cc1c(Nc2ccc(N3CCC(C(F)(F)F)CC3)cc2)ccc2c1OCC(=O)N2 [Compound 568, 8-methyl-7-((4-(4-(trifluoromethyl)piperidin-1-yl)phenyl)amino)-2H-benzo[b] [1,4] oxazin-3(4H)-one] |
| 0.1 to 100 | – | Cc1cc(N2CCN(CC(F)(F)F)CC2)ccc1Nc1ccc2c(c1)OCC(=O)N2 [Compound 569, 7-((2-methyl-4-(4-(2,2,2-trifluoroethyl)piperazin-1-yl)phenyl)amino)-2H-benzo[b][1,4] oxazin-3(4H)-one] |
| 0.1 to 100 | – | Cc1cc(N2CCC(C(F)(F)F)CC2)ccc1Nc1ccc2c(c1)OC(CO)C(=O)N2C (stereo not shown) [Compound 570, 2-(hydroxymethyl)-4-methyl-7-((2-methyl-4-(4-(trifluoromethyl)piperidin-1-yl)phenyl)amino)-2H-benzo[b][1,4]oxazin-3(4H)-one] |
| 0.1 to 100 | – | Cc1cc(N2CCC(C(F)(F)F)CC2)ccc1Nc1ccc2[nH]cc(C(N)=O)c2c1 [Compound 571, 5-((2-methyl-4-(4-(trifluoromethyl)piperidin-1-yl)phenyl)amino)-1H-indole-3-carboxamide] |
| 0.1 to 100 | – | Cc1cc(N2CC(F)C2)ccc1Nc1ccc2c(c1)OCC(=O)N2 [Compound 572, 7-(4-(3-fluoroazetidin-1-yl)-2-methylphenylamino)-2H-benzo[b][1,4]oxazin-3(4H)-one] |
| 0.1 to 100 | – | CCC1CN(c2ccc(Nc3ccc4c(c3)CNC(=O)N4)c(C)n2)CCO1 (stereo not shown) [Compound 573, 6-{[6-(2-ethylmorpholin-4-yl)-2-methylpyridin-3-yl]amino}-3,4-dihydro-1H-quinazolin-2-one] |
| 0.1 to 100 | – | Cc1cc(N2CCC(C)CC2)ccc1Nc1cnc2c(c1)OCC(=O)N2 [Compound 575, 7-((2-methyl-4-(4-methylpiperidin-1-yl)phenyl)amino)-2H-pyrido[3,2-b][1,4]oxazin-3(4H)-one] |
| 0.1 to 100 | – | Cc1cc(N2CC(F)(F)C2)ccc1Nc1ccc2c(c1)OCC(=O)N2 [Compound 576, 7-((4-(3,3-difluoroazetidin-1-yl)-2-methylphenyl)amino)-2H-benzo[b][1,4]oxazin-3(4H)-one] |
| 0.1 to 100 | – | Cc1cc(N2CC(C)C2)ccc1Nc1ccc2c(c1)OCC(=O)N2 [Compound 577, 7-((2-methyl-4-(3-methylazetidin-1-yl)phenyl)amino)-2H-benzo[b][1,4]oxazin-3(4H)-one] |
| 0.1 to 100 | – | COC1CN(c2ccc(Nc3ccc4c(c3)OCC(=O)N4)c(C)c2)C1 [Compound 578, 7-((4-(3-methoxyazetidin-1-yl)-2-methylphenyl)amino)-2H-benzo[b][1,4]oxazin-3(4H)-one] |
| 0.1 to 100 | – | Cc1cc(N2CCC(C(F)(F)F)CC2)ccc1Nc1ccc2c(c1)CN(CC(N)=O)C2 [Compound 579, 2-(5-((2-methyl-4-(4-(trifluoromethyl)piperidin-1-yl)phenyl)amino)isoindolin-2-yl)acetamide] |
| 0.1 to 100 | – | Cc1cc(N2CCN(CC(F)(F)F)[C@@H](C)C2)ccc1Nc1ccc2c(c1)OCC(=O)N2 [Compound 580, (S)-7-((2-methyl-4-(3-methyl-4-(2,2,2-trifluoroethyl)piperazin-1-yl)phenyl)amino)-2H-benzo[b][1,4]oxazin-3(4H)-one] |
| 0.1 to 100 | – | C[C@H]1CN(c2ccc(Nc3ccc4c(c3)OCC(=O)N4)cc2)CCN1CC(F)(F)F [Compound 581, (S)-7-((4-(3-methyl-4-(2,2,2-trifluoroethyl)piperazin-1-yl)phenyl)amino)-2H-benzo[b][1,4]oxazin-3(4H)-one] |
| 0.1 to 100 | – | O=C1CSc2cc(Nc3ccc(N4CCC(C(F)(F)F)CC4)cc3)ccc2N1 [Compound 582, 7-((4-(4-(trifluoromethyl)piperidin-1-yl)phenyl)amino)-2H-benzo[b][1,4]thiazin-3(4H)-one] |
| 0.1 to 100 | – | Cc1cc(N2CC(C(F)(F)F)C2)ccc1Nc1ccc2c(c1)OCC(=O)N2 [Compound 583, 7-((2-methyl-4-(3-(trifluoromethyl)azetidin-1-yl)phenyl)amino)-2H-benzo[b][1,4]oxazin-3(4H)-one] |
| 0.1 to 100 | – | Cc1cc(N2CCC2)ccc1Nc1ccc2c(c1)OCC(=O)N2 [Compound 585, 7-((4-(azetidin-1-yl)-2-methylphenyl)amino)-2H-benzo[b][1,4]oxazin-3(4H)-one] |
| 0.1 to 100 | – | Cc1cc(N2CCC2)ccc1Nc1ccc2c(c1)OCCC(=O)N2 [Compound 586, 8-((4-(azetidin-1-yl)-2-methylphenyl)amino)-2,3-dihydrobenzo[b][1,4]oxazepin-4(5H)-one] |
| 0.1 to 100 | – | Cc1cc(N2CCC(C(F)(F)F)C2)ccc1Nc1ccc2c(c1)OCC(=O)N2 (stereo not shown) [Compound 587, 7-((2-methyl-4-(3-(trifluoromethyl)pyrrolidin-1-yl)phenyl)amino)-2H-benzo[b][1,4]oxazin-3(4H)-one] |
| – | 0.1 to 100 | Cc1cc(N2CCC(C(F)(F)F)C2)ccc1Nc1ccc2c(c1)OCC(=O)N2 (stereo not shown) [Compound 588, 7-((2-methyl-4-(3-(trifluoromethyl)pyrrolidin-1-yl)phenyl)amino)-2H-benzo[b][1,4]oxazin-3(4H)-one] |
| 0.1 to 100 | – | Cc1cc(N2CCC(OC(F)(F)F)C2)ccc1Nc1ccc2c(c1)OCC(=O)N2 (stereo not shown) [Compound 589, 7-((2-methyl-4-(3-(trifluoromethoxy)pyrrolidin-1-yl)phenyl)amino)-2H-benzo[b][1,4]oxazin-3(4H)-one] |
| 0.1 to 100 | – | Cc1cc(N2CC(C(F)(F)F)C2)ccc1Nc1ccc2c(c1)OCCC(=O)N2 [Compound 590] |
| 0.1 to 100 | – | Cc1cc(N2CCC(OC(F)(F)F)C2)ccc1Nc1ccc2c(c1)OCCC(=O)N2 (stereo not shown) [Compound 591, 8-((2-methyl-4-(3-(trifluoromethoxy)pyrrolidin-1-yl)phenyl)amino)-2,3-dihydrobenzo[b][1,4]oxazepin-4(5H)-one] |
| 0.1 to 100 | – | Cc1cc(N2CCC(C(F)(F)F)CC2)ccc1Nc1ccc2c(c1)OC(CN)C(=O)N2 (stereo not shown) [Compound 592, 2-(aminomethyl)-7-((2-methyl-4-(4-(trifluoromethyl)piperidin-1-yl)phenyl)amino)-2H-benzo[b][1,4]oxazin-3(4H)-one] |
